Reference: BindingDB's records for patent US20230348371 (Shanghai Senhui Medicine, 2023)

Molecular target: ATP-binding cassette sub-family C member 8 (Homo sapiens, UniProt Q09428)
Test: Binding Activity of the Compounds of the Present Disclosure for SUR1 Receptor
Method: The plate was incubated at 4° C. for 1 h.f) The […]-96 GF/C and […]-96 GF/B plates were washed twice with Universal Harvester, each time with 50 mL of washing solution.g) The SUR1 receptor reaction system was transferred to a […]-96 GF/B plate with Universal Harvester, and 900 μL of washing solution was added to each well to wash the GF/B plate 4 times. The washed […]-96 GF/B plate was dried in an oven at 55° C. for 10 min.h) 40 μL of ULTIMA GOLD scintillation solution was added to each well, and the plate was read using Microbeta.

Sequence of ATP-binding cassette sub-family C member 8 (Q09428 whole entry): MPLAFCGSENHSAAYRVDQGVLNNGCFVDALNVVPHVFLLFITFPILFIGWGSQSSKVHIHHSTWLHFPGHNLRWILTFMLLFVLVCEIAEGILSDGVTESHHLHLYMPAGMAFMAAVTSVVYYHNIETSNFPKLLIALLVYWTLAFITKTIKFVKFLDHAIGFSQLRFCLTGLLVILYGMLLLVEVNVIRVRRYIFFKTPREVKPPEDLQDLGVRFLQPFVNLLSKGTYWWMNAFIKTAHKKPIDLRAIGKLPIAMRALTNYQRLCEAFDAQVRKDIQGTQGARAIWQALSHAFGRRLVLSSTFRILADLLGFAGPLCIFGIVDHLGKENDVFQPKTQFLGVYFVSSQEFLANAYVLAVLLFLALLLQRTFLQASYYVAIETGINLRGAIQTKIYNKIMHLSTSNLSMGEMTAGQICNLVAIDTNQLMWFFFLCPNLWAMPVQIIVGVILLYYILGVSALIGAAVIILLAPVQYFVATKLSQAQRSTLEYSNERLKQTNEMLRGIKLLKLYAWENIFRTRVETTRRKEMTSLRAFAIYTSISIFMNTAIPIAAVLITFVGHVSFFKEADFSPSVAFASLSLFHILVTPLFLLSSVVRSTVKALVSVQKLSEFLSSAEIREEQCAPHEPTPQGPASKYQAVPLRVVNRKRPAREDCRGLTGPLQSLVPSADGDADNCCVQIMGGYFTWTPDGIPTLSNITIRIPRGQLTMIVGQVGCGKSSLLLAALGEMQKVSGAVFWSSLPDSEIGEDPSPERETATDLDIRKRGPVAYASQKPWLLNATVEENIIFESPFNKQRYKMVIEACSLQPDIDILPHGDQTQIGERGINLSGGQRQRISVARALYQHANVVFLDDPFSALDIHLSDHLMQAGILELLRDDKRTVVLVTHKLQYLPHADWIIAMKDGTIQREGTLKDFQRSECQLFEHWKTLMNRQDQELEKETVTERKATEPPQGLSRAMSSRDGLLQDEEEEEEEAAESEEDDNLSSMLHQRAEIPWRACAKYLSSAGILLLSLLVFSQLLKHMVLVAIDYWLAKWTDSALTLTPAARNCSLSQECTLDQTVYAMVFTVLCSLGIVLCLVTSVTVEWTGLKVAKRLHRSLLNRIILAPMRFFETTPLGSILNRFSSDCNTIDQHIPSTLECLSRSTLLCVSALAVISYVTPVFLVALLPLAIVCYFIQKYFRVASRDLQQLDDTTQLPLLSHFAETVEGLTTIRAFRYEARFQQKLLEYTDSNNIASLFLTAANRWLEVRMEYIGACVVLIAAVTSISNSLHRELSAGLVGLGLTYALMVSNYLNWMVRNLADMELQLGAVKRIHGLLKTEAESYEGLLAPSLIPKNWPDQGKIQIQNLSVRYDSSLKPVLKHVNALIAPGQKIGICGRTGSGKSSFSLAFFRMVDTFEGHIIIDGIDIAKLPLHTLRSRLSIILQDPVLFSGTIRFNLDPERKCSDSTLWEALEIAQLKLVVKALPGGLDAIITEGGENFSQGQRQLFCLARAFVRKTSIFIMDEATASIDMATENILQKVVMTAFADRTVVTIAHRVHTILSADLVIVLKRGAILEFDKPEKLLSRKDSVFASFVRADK

## COc1ccc(Cl)cc1C(=O)NCCc1ccc(S(=O)(=O)NC(=O)N[C@H]2CC[C@H](O)CC2)cc1 [US20230348371, Compound 4]
  IC50: 8 nM
